Measurements as given in patent US20130338190A1, “PHARMACEUTICALLY ACCEPTABLE SALT OF (E)-N-[4-[[3-CHLORO-4-(2-PYRIDYLMETHOXY)PHENYL]AMINO]-3-CYANO-7-ETHOXY-6-QUINOLYL]-3-[(2R)-1-METHYLPYRROLIDIN-2-YL]PROP-2-ENAMIDE, PREPARATION METHOD THEREOF, AND MEDICAL USE THEREOF” (priority 2011, published 2013).
Converted amounts (≈) assume the structure as drawn. Read-outs that look alike come from different tables or passages of the source.

Columns and labels:
[1] = test system: human carcinoma SK-BR-3 cells, which have high expression of HER-2; assay: HER-2 cell activity assay (SRB, 96 hours); format: cell-based
Source text: The following in vitro assay was to determine the activity of the compounds of the present invention for inhibiting the proliferation of human carcinoma SK-BR-3 cells, which have high expression of HER-2.
The following in vitro assay was to determine the activity of the test compounds for inhibiting the angiogenesis and proliferation of cancer cells, which have high expression of HER-2. The activity is represented by the IC50 value. The general procedure of the assay was as follows: the cancer cells line SK-BR-3 highly expressing HER-2 was chosen and the cells were seeded in a 96-well cell culture plate at a suitable density. The cells then were incubated in a carbon dioxide incubator until they reached 60% confluence. Then, the cell culture medium was replaced by fresh medium with the test compounds at various concentrations (6 to 7 concentrations). The cells were put back in the incubator and cultured continuously for 96 hours. The activity of the test compounds for inhibiting the cell proliferation was determined by using a Sulforhodamine B (SRB) method. IC50 values of test cells were calculated by the rate of inhibition at various concentrations of the test compounds.

HER-2 kinase = HER-2 kinase (Homo sapiens, UniProt P04626); assay: HER-2 kinase activity assay (time-resolved fluorescence); format: biochemical; settings: table of the HER-2 kinase activity assay; human-derived recombinant HER-2 kinase, 20 μM ATP, 25° C., 45 minutes; read-out: IC50 (HER-2/SK-BR-3)
Method: The in vitro HER-2 kinase activity was tested by the following assay.
The following assay was used to determine the activity of the compounds of the present invention for inhibiting HER-2 kinase. The half maximal inhibitory concentration IC50 (the concentration of the test compound showing 50% inhibition of the enzyme activity) of each compound was determined by incubating several different concentrations of the test compounds with a specific enzyme and substrate. […] The HER-2 kinase activity was determined by using a time-resolved fluorescence method.

Solubility assay [2] = format: physicochemical
Method: According to the conventional solubility measurement, the solubility of a compound of formula (I) and salts thereof was determined in three different systems: water, physiological saline and methanol.

[3] = Pharmacokinetics assay in rats (LC/MS/MS of plasma); format: in vivo, Sprague Dawley (SD) rats; settings: rat; for Vd/F: read-out: Vz/F
Method: The rats were used as test animals. The compound of formula (I) and other salts thereof were administrated intragastrically, and a maleate salt of the compound of formula (I) was injected into the tail vein to determine the drug concentration in plasma at different time points by an LC/MS/MS method. The pharmacokinetic behavior, characteristics and the oral absolute bioavailability of the present compounds were studied and evaluated in rats. […] 28 healthy adult Sprague Dawley (SD) rats, half male and half female, were purchased from SINO-BRITSH SIPPR/BK LAB. ANIMAL LTD., CO, License number: SCXK (Shanghai) 2008-0016, and divided into 7 groups (4 rats in each group). The intravenous injection group: a suitable amount of compounds was weighed, dissolved in DMSO and diluted with normal saline to the final volume. […] healthy adult SD rats, half male and half female, were divided into 7 groups (4 rats in each group). […] For the intravenous injection group, blood samples (0.2 mL) were taken from orbital sinus before administration and at 2 min, 15 min, 30 min, 1.0 […] and 36.0 h after administration, stored in heparinized tubes and centrifuged for 10 minutes at 3,500 rpm to separate blood plasma. The plasma samples were stored at -20° C. For the intragastrical administration group, blood samples were taken before administration and at 0.5, 1.0, 2.0, 3.0, 4.0, 6.0, 8.0, 12.0, 24.0 and 36.0 hours after administration. The method to treat the samples was the same as with the intravenous injection group. The rats were fed 2 hours after administration.

Solubility assay [4] = format: physicochemical; settings: for solubility: 0.1 M hydrochloric acid, simulated gastric fluid
[5] = test system: human epidermoid carcinoma A431 cells, which have high expression of EGFR; assay: EGFR cell proliferation inhibition assay (SRB, 72 hours); format: cell-based; settings: read-out: IC50 (EGFR/A431)
Method: The activity is represented by the IC50 value. The general procedures of the assay were as follows: the cancer cells A431 highly expressing EGFR were chosen and seeded in a 96-well cell culture plate at a suitable density (e.g., 5000 cells/mL medium). The cells were then incubated in a carbon dioxide incubator until they reached 85% confluence. Then, the cell culture medium was replaced by fresh medium containing the test compounds with serial dilutions (general 6 to 7 concentrations). The cells were put back in the incubator and cultured continuously for 72 hours. The activity of the test compounds for inhibiting the cell proliferation was determined by using a Sulforhodamine B (SRB) method. IC50 values were calculated by the rate of inhibition at various concentrations of the test compounds.

[6] = physiological saline, saline or isotonic, physiological saline, read-out: Solubility Value, Physiological saline
[7] = both sexes, Sprague-Dawley, plasma, iv, 25 mg/kg, vein (tail vein injection)
[8] = both sexes, Sprague-Dawley, plasma, iv, 25 mg/kg, vein (tail vein injection), read-out: AUC0-t
[9] = both sexes, Sprague-Dawley, plasma, iv, 25 mg/kg, vein (tail vein injection), read-out: MRT
[10] = vein (tail vein injection), 25 mg/kg
[11] = both sexes, Sprague-Dawley, plasma, po, 25 mg/kg, gavage
[12] = both sexes, Sprague-Dawley, plasma, po, 25 mg/kg, gavage, read-out: AUC0-t
[13] = both sexes, Sprague-Dawley, plasma, po, 25 mg/kg, gavage, read-out: Cmax
[14] = both sexes, Sprague-Dawley, plasma, po, 25 mg/kg, gavage, read-out: MRT
[15] = vein (tail vein injection), 25 mg/kg, dimaleate
[16] = water, read-out: Solubility Value, Water
[17] = gavage, 25 mg/kg, dimethanesulfonate
[18] = vein (tail vein injection), 25 mg/kg, dimethanesulfonate
[19] = gavage, 25 mg/kg, trimethanesulphonate
[20] = vein (tail vein injection), 25 mg/kg, trimethanesulphonate

Chain of HER-2 kinase (P04626 23-1255): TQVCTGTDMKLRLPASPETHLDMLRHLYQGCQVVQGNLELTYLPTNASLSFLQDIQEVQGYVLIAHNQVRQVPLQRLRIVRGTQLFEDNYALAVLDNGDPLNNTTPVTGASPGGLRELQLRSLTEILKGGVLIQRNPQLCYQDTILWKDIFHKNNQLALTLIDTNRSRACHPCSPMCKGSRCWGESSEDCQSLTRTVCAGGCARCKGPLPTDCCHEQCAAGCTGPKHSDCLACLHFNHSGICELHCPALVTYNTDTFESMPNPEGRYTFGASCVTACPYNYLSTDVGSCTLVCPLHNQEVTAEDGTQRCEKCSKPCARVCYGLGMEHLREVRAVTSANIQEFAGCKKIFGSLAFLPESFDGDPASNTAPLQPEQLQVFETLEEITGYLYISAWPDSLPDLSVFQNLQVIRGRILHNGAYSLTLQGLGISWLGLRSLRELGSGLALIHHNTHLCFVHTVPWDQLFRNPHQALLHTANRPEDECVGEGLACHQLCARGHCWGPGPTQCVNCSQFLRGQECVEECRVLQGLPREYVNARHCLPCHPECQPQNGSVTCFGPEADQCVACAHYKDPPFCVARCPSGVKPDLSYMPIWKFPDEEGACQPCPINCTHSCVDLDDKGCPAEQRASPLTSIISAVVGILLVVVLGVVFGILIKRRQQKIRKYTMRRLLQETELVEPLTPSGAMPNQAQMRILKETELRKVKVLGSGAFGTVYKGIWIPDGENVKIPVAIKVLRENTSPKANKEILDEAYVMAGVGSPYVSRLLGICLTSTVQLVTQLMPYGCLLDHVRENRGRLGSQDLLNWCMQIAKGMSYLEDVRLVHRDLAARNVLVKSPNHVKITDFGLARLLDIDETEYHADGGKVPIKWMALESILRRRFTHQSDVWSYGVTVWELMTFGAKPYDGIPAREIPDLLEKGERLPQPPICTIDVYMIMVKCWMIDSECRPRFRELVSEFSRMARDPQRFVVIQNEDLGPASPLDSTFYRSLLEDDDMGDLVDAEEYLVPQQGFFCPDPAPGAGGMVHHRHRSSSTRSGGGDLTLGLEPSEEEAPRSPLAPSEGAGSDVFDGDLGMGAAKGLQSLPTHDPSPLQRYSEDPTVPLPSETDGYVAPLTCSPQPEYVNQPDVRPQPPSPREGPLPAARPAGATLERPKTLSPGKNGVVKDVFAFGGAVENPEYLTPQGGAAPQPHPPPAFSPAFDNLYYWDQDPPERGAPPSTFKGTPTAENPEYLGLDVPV

CCOc1cc2ncc(C#N)c(Nc3ccc(OCc4ccccn4)c(Cl)c3)c2cc1NC(=O)/C=C/[C@H]1CCCN1C.O=C(O)/C=C\C(=O)O [Example 1, (E)-N-[4-[[3-chloro-4-(2-pyridylmethoxy)phenyl]amino]-3-cyano-7-ethoxy-6-quinolyl]-3-[(2R)-1-methylpyrrolidin-2-yl]prop-2-enamide maleate]
IC50 ([1]; read-out: IC50 (HER-2/SK-BR-3), maleate): 0.064 µM
IC50 (HER-2 kinase): 0.053 µM
solubility (Solubility assay [2]; [6]): 0.19 mg/mL
half-life [3, 7]: 4.92 ± 0.6 h
AUC(0-t) [3, 8]: 222 ± 77 µg·h/mL
MRT [3, 9]: 5.5 ± 0.99 h
AUC(0-t) ([3]; gavage, 25 mg/kg, maleate): 104.58 ± 56.54 µg·h/mL
Cmax ([3]; gavage, 25 mg/kg, maleate): 8990 ± 4870 ng/mL
MRT ([3]; gavage, 25 mg/kg, maleate): 8.93 ± 1.39 h
t1/2 ([3]; gavage, 25 mg/kg, maleate): 4.4 ± 1.3 h
F (%) ([3]; oral absolute bioavailability, 25 mg/kg (calculated by the base part), maleate): 47.1%
Solubility Value, 0.1M Hydrochloric acid (Solubility assay [4]; maleate): 23.33 mg/mL
Solubility Value, Water (Solubility assay [4]; water, maleate): 12.49 mg/mL

CCOc1cc2ncc(C#N)c(Nc3ccc(OCc4ccccn4)c(Cl)c3)c2cc1NC(=O)/C=C/[C@H]1CCCN1C [Example 1f, (E)-N-[4-[[3-chloro-4-(2-pyridylmethoxy)phenyl]amino]-3-cyano-7-ethoxy-6-quinolyl]-3-[(2R)-1-methylpyrrolidin-2-yl]prop-2-enamide]
IC50 ([1]; Homo sapiens, SK-BR-3, 96 h, read-out: IC50 (HER-2/SK-BR-3)): 0.059 µM
IC50 (HER-2 kinase): 0.065 µM
Solubility Value, Water (Solubility assay [2]; water): 0.008 mg/mL (≈ 13.7 µM)
AUC(0-t) ([3]; gavage, 25 mg/kg): 52.81 ± 23.59 µg·h/mL
F (%) ([3]; oral absolute bioavailability, 25 mg/kg (calculated by the base part)): 42.2%
AUC(0-t) [3, 10]: 125.4 ± 38.95 µg·h/mL
MRT [3, 10]: 4.22 ± 0.71 h
t1/2 [3, 10]: 5.25 ± 2.01 h
Solubility Value, 0.1M Hydrochloric acid (Solubility assay [4]): 1.43 mg/mL (≈ 2450 µM)
solubility in conventional solvents (in words) (Solubility assay [4]; conventional solvents): poorly soluble
Solubility Value, Physiological saline (Solubility assay [4]): 0.0026 mg/mL

CCOc1cc2ncc(C#N)c(Nc3ccc(OCc4ccccn4)c(Cl)c3)c2cc1NC(=O)/C=C/[C@H]1CCCN1C.O=C(O)/C=C\C(=O)O [Example 2, (E)-N-[4-[[3-chloro-4-(2-pyridylmethoxy)phenyl]amino]-3-cyano-7-ethoxy-6-quinolyl]-3-[(2R)-1-methylpyrrolidin-2-yl]prop-2-enamide dimaleate]
IC50 ([5]; Homo sapiens, A-431, 72 h): 0.031 µM
IC50 (HER-2 kinase): 0.028 µM
Solubility Value, Water (Solubility assay [2]; water, dimaleate): 1.52 mg/mL
CL/F [3, 11]: 4.83 mL/min/kg
half-life [3, 11]: 4.45 ± 1.63 h
AUC(0-t) [3, 12]: 116 ± 67.2 µg·h/mL
Cmax [3, 13]: 10200 ± 4410 ng/mL
MRT [3, 14]: 8.03 ± 0.99 h
Vd/F [3, 11]: 1.84 ± 1.19 L/kg
bioavailability ([3]; both sexes, Sprague-Dawley, plasma, po, 25 mg/kg, oral absolute bioavailability, 25 mg/kg (calculated by the base part)): 48.3%
MRT [3, 15]: 2.96 ± 0.47 h
t1/2 [3, 15]: 3.74 ± 1.20 h
Solubility Value, 0.1M Hydrochloric acid (Solubility assay [4]; dimaleate): 54.88 mg/mL
Solubility Value, Physiological saline (Solubility assay [4]; dimaleate): 0.36 mg/mL

CCOc1cc2ncc(C#N)c(Nc3ccc(OCc4ccccn4)c(Cl)c3)c2cc1NC(=O)/C=C/[C@H]1CCCN1C.O=C(O)C[C@H](O)C(=O)O [Example 3, (E)-N-[4-[[3-chloro-4-(2-pyridylmethoxy)phenyl]amino]-3-cyano-7-ethoxy-6-quinolyl]-3-[(2R)-1-methylpyrrolidin-2-yl]prop-2-enamide L-malate]
IC50 ([5]; A431 cells, 72 hours, SRB, L-malate): 0.029 µM
IC50 ([1]; L-malate, read-out: IC50 (HER-2/SK-BR-3)): 0.056 µM
IC50 (HER-2 kinase): 0.071 µM
solubility (Solubility assay [2]; [6]): 0.08 mg/mL
solubility (Solubility assay [2]; [16]): 17.2 mg/mL
solubility (Solubility assay [4]): 12.7 mg/mL

CCOc1cc2ncc(C#N)c(Nc3ccc(OCc4ccccn4)c(Cl)c3)c2cc1NC(=O)/C=C/[C@H]1CCCN1C.CS(=O)(=O)O [Example 4, (E)-N-[4-[[3-chloro-4-(2-pyridylmethoxy)phenyl]amino]-3-cyano-7-ethoxy-6-quinolyl]-3-[(2R)-1-methylpyrrolidin-2-yl]prop-2-enamide methanesulfonate]
half-life [3, 7]: 3.77 ± 0.22 h
AUC(0-t) [3, 8]: 146 ± 40.4 µg·h/mL
MRT [3, 9]: 5.46 ± 0.48 h
CL/F [3, 11]: 5.33 mL/min/kg
half-life [3, 11]: 3.67 ± 0.83 h
AUC(0-t) [3, 12]: 92.3 ± 37 µg·h/mL
Cmax [3, 13]: 6920 ± 1820 ng/mL
MRT [3, 14]: 8.4 ± 0.65 h
Vd/F [3, 11]: 1.6 ± 0.54 L/kg
F (%) ([3]; oral absolute bioavailability, 25 mg/kg (calculated by the base part), methanesulfonate): 63.2%

CCOc1cc2ncc(C#N)c(Nc3ccc(OCc4ccccn4)c(Cl)c3)c2cc1NC(=O)/C=C/[C@H]1CCCN1C.CS(=O)(=O)O [Example 5, (E)-N-[4-[[3-chloro-4-(2-pyridylmethoxy)phenyl]amino]-3-cyano-7-ethoxy-6-quinolyl]-3-[(2R)-1-methylpyrrolidin-2-yl]prop-2-enamide dimethanesulfonate]
AUC(0-t) [3, 17]: 81.53 ± 40.46 µg·h/mL
Cmax [3, 17]: 7880 ± 2510 ng/mL
MRT [3, 17]: 7.95 ± 0.61 h
t1/2 [3, 17]: 3.46 ± 0.56 h
F (%) ([3]; oral absolute bioavailability, 25 mg/kg (calculated by the base part), dimethanesulfonate): 72.1%
AUC(0-t) [3, 18]: 112.84 ± 62.1 µg·h/mL
MRT [3, 18]: 4.2 ± 0.99 h
t1/2 [3, 18]: 3.12 ± 0.37 h

CCOc1cc2ncc(C#N)c(Nc3ccc(OCc4ccccn4)c(Cl)c3)c2cc1NC(=O)/C=C/[C@H]1CCCN1C.CS(=O)(=O)O [Example 6, (E)-N-[4-[[3-chloro-4-(2-pyridylmethoxy)phenyl]amino]-3-cyano-7-ethoxy-6-quinolyl]-3-[(2R)-1-methylpyrrolidin-2-yl]prop-2-enamide trimethanesulphonate]
AUC(0-t) [3, 19]: 81.72 ± 22.16 µg·h/mL
Cmax [3, 19]: 6270 ± 1580 ng/mL
MRT [3, 19]: 8.59 ± 0.22 h
t1/2 [3, 19]: 4.15 ± 0.09 h
F (%) ([3]; oral absolute bioavailability, 25 mg/kg (calculated by the base part), trimethanesulphonate): 50.5%
AUC(0-t) [3, 20]: 162.28 ± 55.65 µg·h/mL
MRT [3, 20]: 4.94 ± 0.58 h
t1/2 [3, 20]: 5.27 ± 0.29 h

CCOc1cc2ncc(C#N)c(Nc3ccc(OCc4ccccn4)c(Cl)c3)c2cc1NC(=O)/C=C/[C@H]1CCCN1C.O=C(O)CCC(=O)O [Example 8, (E)-N-[4-[[3-chloro-4-(2-pyridylmethoxy)phenyl]amino]-3-cyano-7-ethoxy-6-quinolyl]-3-[(2R)-1-methylpyrrolidin-2-yl]prop-2-enamide succinate]
IC50 ([5]; A431 cells, 72 hours, SRB, succinate): 0.015 µM
IC50 ([1]; succinate, read-out: IC50 (HER-2/SK-BR-3)): 0.078 µM
IC50 (HER-2 kinase): 0.053 µM
solubility (Solubility assay [2]; [6]): 3.32 mg/mL
solubility (Solubility assay [2]; [16]): 22.4 mg/mL
solubility (Solubility assay [4]): 32.4 mg/mL
